The subject of this experiment is beta-catenin. Put plainly: Western immunoblot of total and active (unphosphorylated) beta-catenin in INS-1 cells. The class given is cell-based. How it is done: FIG. 5. Inhibition of TCF7L2 or beta-catenin suppresses SDF-1 induced TOPflash activity. A. Dominant-negative TCF7L2 inhibits both basal and SDF-1-induced TOPflash activity. B. SiRNAs to beta-catenin SiRNAs inhibit SDF-1-stimulated Wnt signaling in INS-1 cells. INS-1 Cells were transfected and preincubated with TOPflash and the combination of either siRNAs 1 and 2, or scrambled siRNA and then treated for 4 hrs with 1 nM SDF-1 or control vehicle. Data are normalized for transfection efficiency by co-transfected beta-galactosidase and represent means±S.D. of three experiments. C. SDF-1 stabilizes beta-catenin through GPCR coupled Galphai/o. INS-1 cell cultures were stimulated with SDF-1 for the indicated times. Immunoblot analyses with anti-beta-catenin or anti-unphosphorylated beta-catenin (active beta-catenin).
Western Immunoblots Membrane immunoblots were prepared from extracts of INS-1 cells and were interrogated with antisera to beta-catenin: total protein (Santa Cruz), and active form with the mutated GSK-3 phosphorylation sites (UpState 8E7).
The transcriptional activation of Wnt target genes requires the association of TCF7L2 with nuclear beta-catenin. Therefore, we investigated whether active TCF7L2 is necessary for SDF-1-induced Wnt signaling. […]
(In western blotting, separated proteins are transferred to a membrane and probed.)

The record followed here is US20120053119A1, “THERAPEUTIC METHOD FOR INCREASING PANCREATIC BETA CELL MASS” (priority 2009, published 2012).

In the case of “SDF-1: small, secreted 70 amino acid peptide chemokine, SEQ ID NO: 1, ligand of CXCR4”, the “level of active beta-catenin (unphosphorylated on Ser-33 and Ser-37)” value (30 min after SDF-1 treatment) is given as “increased”. In addition, the total beta-catenin result (after 24-48 hours of SDF-1 treatment) is reported as “substantial increase”.
